In patent US20100267744A1, “Pharmaceutical Compositions” (Vertex Pharmaceuticals Incorporated, priority 2006, published 2010):

Experiments:
[1] = Chemical reactivity of VX-950 with alcohol solvents; format: physicochemical; conditions: MeOH, EtOH, iPrOH
Description: The manufacture of an amorphous solid dispersion containing VX-950 presented several challenges. […] Therefore, an appropriate solvent or solvent mixture is crucial to optimizing the processing and production of a solid dispersion. In preferred processes, the solvent includes a volatile solvent. In some embodiments, the solvent includes a mixture of volatile solvents. Preferable solvents include those that can dissolve both VX-950 and the polymers. Suitable solvents include those described above, for example, methylene chloride, acetone, etc. In more preferred processes, the solvent is a mixture of methylene chloride and acetone. The percent weight ratio of methylene chloride:acetone can be for example, about 100:0, about 90:10, about 80:20, about 70:30, about 60:40, and is preferably about 80:20 or about 70:30. The solvent or solvent mixture can also contain a non volatile solvent, such as glacial acetic acid. The organic acid or polar solvent solvent can be, e.g., up to about 5%, up to about 10%, or up to about 15% by weight of the solvent mixture. For example, a solvent mixture can contain a percent weight ratio of methylene chloride:acetone:glacial acetic acid of about 67:28:5 or 63:27:10. […] Such a solvent should not contain an OH group or a similarly reactive moiety. In these processes, therefore, a preferred solvent is other than an alcohol.

in vivo = conditions: rat, po
[2] = format: physicochemical
Description: The manufacture of an amorphous solid dispersion containing VX-950 presented several challenges. […] Therefore, an appropriate solvent or solvent mixture is crucial to optimizing the processing and production of a solid dispersion.

CCC[C@H](NC(=O)[C@@H]1[C@H]2CCC[C@H]2CN1C(=O)[C@@H](NC(=O)[C@@H](NC(=O)c1cnccn1)C1CCCCC1)C(C)(C)C)C(=O)C(=O)NC1CC1 [VX-950]
chemical reactivity with alcohols [1]: has shown chemical reactivity with some alcohols
bioavailability (in vivo): < 0.5%
aqueous solubility [2]: virtually undetectable
pH dependence of aqueous solubility [2]: not pH-dependent
solubility in water [2]: highly insoluble
solubility in water or most other conventional organic solvents [2]: does not dissolve to a significant amount
